One assay concerns the target T1, FLT3-ITD (Homo sapiens, UniProt P36888).
T1 construct: FLT3-ITD; Invitrogen #PV6190
T1 sequence (P36888 1-993): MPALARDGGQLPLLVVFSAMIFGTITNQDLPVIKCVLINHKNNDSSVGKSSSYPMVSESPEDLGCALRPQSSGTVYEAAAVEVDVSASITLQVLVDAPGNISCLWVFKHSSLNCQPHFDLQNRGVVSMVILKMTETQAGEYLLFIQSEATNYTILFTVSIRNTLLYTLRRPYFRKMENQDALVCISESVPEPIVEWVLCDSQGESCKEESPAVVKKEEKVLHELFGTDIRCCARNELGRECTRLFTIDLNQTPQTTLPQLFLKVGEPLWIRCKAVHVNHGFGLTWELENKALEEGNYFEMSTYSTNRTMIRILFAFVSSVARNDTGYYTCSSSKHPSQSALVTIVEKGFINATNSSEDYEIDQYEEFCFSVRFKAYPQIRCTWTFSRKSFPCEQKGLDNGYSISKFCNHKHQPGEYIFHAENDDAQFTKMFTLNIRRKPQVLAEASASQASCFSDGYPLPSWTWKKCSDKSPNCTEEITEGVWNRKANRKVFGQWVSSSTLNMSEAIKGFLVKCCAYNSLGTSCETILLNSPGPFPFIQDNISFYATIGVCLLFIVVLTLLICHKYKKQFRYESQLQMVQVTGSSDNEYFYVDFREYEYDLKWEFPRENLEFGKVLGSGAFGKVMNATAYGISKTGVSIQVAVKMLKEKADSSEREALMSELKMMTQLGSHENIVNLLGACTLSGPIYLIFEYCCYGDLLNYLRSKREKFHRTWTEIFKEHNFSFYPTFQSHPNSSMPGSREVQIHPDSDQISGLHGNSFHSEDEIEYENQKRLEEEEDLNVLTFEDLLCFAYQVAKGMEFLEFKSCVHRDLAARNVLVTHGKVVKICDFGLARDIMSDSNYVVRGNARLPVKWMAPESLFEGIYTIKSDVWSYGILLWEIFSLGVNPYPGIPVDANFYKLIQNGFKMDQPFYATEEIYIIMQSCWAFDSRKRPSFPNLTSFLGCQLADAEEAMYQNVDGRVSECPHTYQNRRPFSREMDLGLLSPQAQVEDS
Nature of the assay: FLT3-ITD biochemical kinase assay (AlphaScreen). The gist of the method: (§1)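 IC50 values reflect loss of AlphaScreen proximity signal (excitation 680 nm, emission 580 nm) from tyrosine phosphorylation of a biotinylated poly(Glu4-Tyr) substrate at 30 nM. ATP was 10 μM for the D835Y mutant and 100 μM for ITD. Detection used PY20 acceptor beads.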

For another assay, the target named is T2, FLT3-D835Y (Homo sapiens, UniProt P36888, D835Y).
T2 construct: purchased Invitrogen PV3967
T2 sequence (P36888 27-993 D835Y): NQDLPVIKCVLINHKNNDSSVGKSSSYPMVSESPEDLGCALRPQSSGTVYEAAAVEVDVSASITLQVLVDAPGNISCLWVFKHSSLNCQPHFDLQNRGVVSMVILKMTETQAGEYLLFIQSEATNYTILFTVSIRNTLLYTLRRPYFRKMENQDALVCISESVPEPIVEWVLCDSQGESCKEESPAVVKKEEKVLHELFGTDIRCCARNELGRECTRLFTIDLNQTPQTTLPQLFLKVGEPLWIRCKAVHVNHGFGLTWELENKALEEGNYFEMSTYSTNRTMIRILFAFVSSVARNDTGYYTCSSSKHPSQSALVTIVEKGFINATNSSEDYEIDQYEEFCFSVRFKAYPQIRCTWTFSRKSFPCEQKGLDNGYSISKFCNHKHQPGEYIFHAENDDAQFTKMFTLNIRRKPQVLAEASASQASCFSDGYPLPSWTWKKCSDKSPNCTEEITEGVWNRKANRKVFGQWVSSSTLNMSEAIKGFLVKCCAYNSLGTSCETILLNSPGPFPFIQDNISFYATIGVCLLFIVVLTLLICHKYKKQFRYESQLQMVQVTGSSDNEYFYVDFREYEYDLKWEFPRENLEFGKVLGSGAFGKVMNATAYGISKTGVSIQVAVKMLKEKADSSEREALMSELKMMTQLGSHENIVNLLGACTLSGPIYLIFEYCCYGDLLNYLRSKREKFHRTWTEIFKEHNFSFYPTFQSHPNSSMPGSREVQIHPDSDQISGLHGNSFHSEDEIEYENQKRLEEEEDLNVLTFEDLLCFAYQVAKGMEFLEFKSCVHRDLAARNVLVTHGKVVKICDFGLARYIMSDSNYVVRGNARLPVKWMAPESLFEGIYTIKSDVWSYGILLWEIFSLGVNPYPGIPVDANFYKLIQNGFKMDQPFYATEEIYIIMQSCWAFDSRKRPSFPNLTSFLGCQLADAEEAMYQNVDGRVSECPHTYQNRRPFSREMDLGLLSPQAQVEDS
Nature of the assay: FLT3-D835Y biochemical kinase assay (AlphaScreen). The gist of the method:
as §1
On the technique in general: In Alpha technology, singlet oxygen from a donor bead excites a nearby acceptor bead.

In the case of `COc1cc(-c2cnc3[nH]cc(-c4ccc5ncn([C@@H]6CCCNC6)c5c4)c3n2)ccn1` [P-254, 2-(2-methoxy-4-pyridyl)-7-[3-[(3R)-3-piperidyl]benzimidazol-5-yl]-5H-pyrrolo[2,3-b]pyrazine], the IC50 on FLT3-ITD and at FLT3-D835Y was 0.0001 to 1 µM in each case.
`CN(c1cccc(-c2cnc3[nH]cc(-c4ccc5ncn(C)c5c4)c3n2)c1)S(C)(=O)=O` [P-150, N-methyl-N-[3-[7-(3-methylbenzimidazol-5-yl)-5H-pyrrolo[2,3-b]pyrazin-2-yl]phenyl]methanesulfonamide]: the IC50 against FLT3-ITD and against FLT3-D835Y was 0.0001 to 1 µM in each case.
Regarding `COc1cnc2[nH]cc(-c3ccc4ncn(-c5ccc(Cl)cc5)c4c3)c2c1` [P-104, 1-(4-chlorophenyl)-6-(5-methoxy-1H-pyrrolo[2,3-b]pyridin-3-yl)benzimidazole], the concentration for half-maximal inhibition (IC50) on FLT3-ITD and at FLT3-D835Y was 0.0001 to 1 µM throughout.

The term IC50 denotes the point on the concentration scale where inhibition reaches its midpoint. A high value points to lower potency.

The record behind these values is patent US10160755B2 (Plexxikon Inc., priority 2015, dated 2018).
